Patent US20100298370A1, “BENZOTHIAZOLYL THIENOPYRIDINE DERIVATIVES AND USES THEREOF” (priority 2006, published 2010)

Molecular target: T1, VEGF binding to heparin (HS-GAG) (Homo sapiens, UniProt P15692)
T1 construct: purchased Research and Development Systems
T1 sequence (P15692 27-191 isoform P15692-4): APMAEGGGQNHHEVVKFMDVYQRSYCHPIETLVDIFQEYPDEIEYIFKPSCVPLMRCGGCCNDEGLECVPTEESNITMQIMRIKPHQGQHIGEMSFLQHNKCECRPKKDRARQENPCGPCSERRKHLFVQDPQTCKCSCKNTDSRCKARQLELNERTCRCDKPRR
Assay: In vitro VEGF to HS-GAG binding assay (ELISA, heparin-BSA coated plate)
Source text: An in vitro assay was used to assess the ability of test compounds of general formulas I and II to inhibit the interaction of VEGF with HS-GAGs. The assay was designed to for determine the concentration required for 50% inhibition (IC-50) for each specific compound. The test compounds were purchased from Life Chemicals Ltd. (Kiev, Ukraine), and the GAG used was heparin (heparin grade I-A; Sigma) conjugated to bovine serum albumin (Sigma) and diluted 1:200 in phosphate-buffered saline (PBS; pH 7.3). The heparin was added to a 96-well polystyrene ELISA plate (NUNC; 0.1 ml per well) and incubated overnight at 4° C. Following the incubation, the plate was washed thoroughly, by immersion, with de-ionized water and then with PBS (pH 7.3) containing Tween 20 (Sigma, 0.05%). The ELISA plate was then blocked with BSA (ICN, 3%, 200 μl per well) for 1 hour at room temperature. Following blocking, the plate was washed with de-ionized water, and then twice with PBS (pH 7.3) containing Tween 20. Recombinant human VEGF (Research and Development Systems) dissolved in PBS supplemented with BSA (0.1%) was added to the ELISA plate. The test compounds were dissolved in DMSO (MERCK), diluted in PBS and added to the wells at concentrations ranging from 0.01 to 200 μM to obtain a final volume 100 μl per well, and incubated for 60 minutes at room temperature with shaking. Following incubation, the plate was washed with de-ionized water and PBS (pH 7.3) containing Tween 20. Anti-human VEGF (1:2000; Research and Development Systems) diluted in PBS supplemented with BSA (1%) was added to the ELISA plate (100 per well) and incubated for 60 minutes at room temperature with shaking. Following incubation, the plate was washed with de-ionized water and then with PBS (pH 7.3) containing Tween 20. Streptavidin-HRP (1:200; Research and Development Systems Cat. No. DY998) diluted in PBS supplemented with BSA (1%) was added to the ELISA plate (100 per well) and incubated for 20 minutes at room temperature with shaking. The plate was then washed with de-ionized water and twice with PBS (pH 7.3) containing Tween 20. The peroxidase substrate chromogen tetramethyl benzidine (TMB; Dako) was added (100 μl per well) to the ELISA plate and incubated at room temperature. After 15 minutes, ELISA Stop Solution (hydrochloric acid 1N, sulfuric acid 3N) was added (100 μl per well) to stop the peroxidase catalyzed colorimetric reaction. The Optical Density (OD) of the samples was measured at 450 nm using an ELISA plate reader (Dynatech MR5000). Data were analyzed with Graphpad Prism software and IC-50 values were determined.
Percent inhibition at 30 μM concentration is shown and for selected compounds IC-50 was established.

Row | inhibition at 30 µM [%] | IC50 [nM] | Compound
1 | 55 |  | O=C(COc1ccc(Cl)cc1)Nc1sc2c(c1-c1nc3ccccc3s1)CCN(Cc1ccccc1)C2 [Compound 27, N-[3-(2-benzothiazolyl)-4,5,6,7-3-tetrahydro-6-phenylmethylthieno[2,3-c]pyridin-2-yl]-2-(4-chlorophenoxy)acetamide]
2 | 71 |  | CCN1CCc2c(sc(NC(=O)c3ccc(Cl)cc3)c2-c2nc3ccccc3s2)C1 [Compound 10, N-[3-(2-benzothiazolyl)-4,5,6,7-tetrahydro-6-ethylthieno[2,3-c]pyridin-2-yl]-(4-chloro)benzamide]
3 | 62 |  | CN1CCc2c(sc(NC(=O)CCSc3ccc(F)cc3)c2-c2nc3ccccc3s2)C1 [Compound 12, N-[3-(2-benzothiazolyl)-4,5,6,7-tetrahydro-6-methylthieno[2,3-c]pyridin-2-yl]-3-[(4-fluorophenyl)thio]propanamide]
4 | 44 |  | CC(C)N1CCc2c(sc(NC(=O)CCc3ccccc3)c2-c2nc3ccccc3s2)C1 [Compound 18, N-[3-(2-benzothiazolyl)-4,5,6,7-tetrahydro-6-(1-methylethyl)thieno[2,3-c]pyridin-2-yl]-3-benzenepropaneamide]
5 | 79 | 900 | CC(C)(C)C(=O)Nc1sc2c(c1-c1nc3ccccc3s1)CCN(Cc1ccccc1)C2 [Compound 21, N-[3-(2-benzothiazolyl)-4,5,6,7-tetrahydro-6-phenylmethyllthieno[2,3-c]pyridin-2-yl]-2,2-dimethylpropaneamide]
6 | 41 |  | Cc1ccc(CC(=S)Nc2sc3c(c2-c2nc4ccccc4s2)CCN(C)C3)cc1 [Compound 40, N-[3-(2-benzothiazolyl)-4,5,6,7-tetrahydro-6-methylthieno[2,3-c]pyridin-2-yl]-(4-methylphenyl)thioacetamide]
7 | 55 |  | CN1CCc2c(sc(NC(=O)c3ccco3)c2-c2nc3ccccc3s2)C1 [Compound 25, N-[3-(2-benzothiazolyl)-4,5,6,7-tetrahydro-6-methylthieno[2,3-c]pyridin-2-yl]-2-furancarboxamide]
8 | 77 | 240 | COC(=O)c1ccc(C(=O)Nc2sc3c(c2-c2nc4ccccc4s2)CCN(C(C)C)C3)cc1 [Compound 20]
9 | 41 |  | CCN1CCc2c(sc(NC(=O)c3ccc(OC)cc3)c2-c2nc3ccccc3s2)C1 [Compound 11, N-[3-(2-benzothiazolyl)-4,5,6,7-tetrahydro-6-ethylthieno[2,3-c]pyridin-2-yl]-4-methoxybenzamide]
10 | 37 |  | CCOC(=O)N1CCc2c(sc(NC(=O)c3ccccc3)c2-c2nc3ccccc3s2)C1 [Compound 35, N-[3-(2-benzothiazolyl)-4,5,6,7-tetrahydro-6-ethoxycarbonylthieno[2,3-c]pyridin-2-yl]benzamide]
11 | 31 |  | CC(=O)N1CCc2c(sc(NC(=O)c3cccc(Br)c3)c2-c2nc3ccccc3s2)C1 [Compound 36, N-[3-(2-benzothiazolyl)-4,5,6,7-tetrahydro-6-acetylthieno[2,3-c]pyridin-2-yl]-3-bromobenzamide]
12 | 36 |  | CC(C)N1CCc2c(sc(NC(=O)C3CCCCC3)c2-c2nc3ccccc3s2)C1 [Compound 26, N-[3-(2-benzothiazolyl)-4,5,6,7-tetrahydro-6-(1-methylethyl)thieno[2,3-c]pyridin-2-yl]-cyclohexylcarboxamide]
13 | 77 | 200 | CN1CCc2c(sc(NC(=O)c3ccc4ncsc4c3)c2-c2nc3ccccc3s2)C1 [Compound 34, N-[3-(2-benzothiazolyl)-4,5,6,7-tetrahydro-6-methylthieno[2,3-c]pyridin-2-yl]-6-benzothiazolecarboxamide]
14 | 31 |  | CN1CCc2c(sc(NC(=O)c3cc4c(ccc5ccccc54)oc3=O)c2-c2nc3ccccc3s2)C1 [Compound 32, N-[3-(2-benzothiazolyl)-4,5,6,7-tetrahydro-6-methylthieno[2,3-c]pyridin-2-yl]-3-oxo-3H-naphtho[2,1-b]pyran-2-carboxamide]
15 | 52 |  | O=C(Nc1sc2c(c1-c1nc3ccccc3s1)CCN(Cc1ccccc1)C2)c1ccc(Br)s1 [Compound 24, N-[3-(2-benzothiazolyl)-4,5,6,7-tetrahydro-6-phenylmethylthieno[2,3-c]pyridin-2-yl]-2-(5-bromo)thiophenecarboxamide]
16 | 43 |  | COc1cc2ccccc2cc1C(=O)Nc1sc2c(c1-c1nc3ccccc3s1)CCN(C)C2 [Compound 15, N-[3-(2-benzothiazolyl)-4,5,6,7-tetrahydro-6-methylthieno[2,3-c]pyridin-2-yl]-3-methoxy-2-naphthalenecarboxamide]
17 | 50 |  | O=C(Nc1sc2c(c1-c1nc3ccccc3s1)CCN(Cc1ccccc1)C2)C1COc2ccccc2O1 (stereo not drawn) [Compound 33, N-[3-(2-benzothiazolyl)-4,5,6,7-tetrahydro-6-phenylmethylthieno[2,3-c]pyridin-2-yl]-2,3-dihydro-1,4-benzodioxin-2-carboxamide]
18 | 61 |  | CN1CCc2c(sc(NC(=O)c3cccc(C(F)(F)F)c3)c2-c2nc3ccccc3s2)C1 [Compound 16, N-[3-(2-benzothiazolyl)-4,5,6,7-tetrahydro-6-methylthieno[2,3-c]pyridin-2-yl]-3-trifluoromethylbenzamide]
19 | 77 | 300 | CCN1CCc2c(sc(NC(=O)c3cccc(N4C(=O)CCC4=O)c3)c2-c2nc3ccccc3s2)C1 [Compound 17, N-[3-(2-benzothiazolyl)-4,5,6,7-tetrahydro-6-ethylthieno[2,3-c]pyridin-2-yl]-3-(2,5-dioxo-1-pyrrolidinyl)benzamide]
20 | 75 | 350 | CC(=O)N1CCc2c(sc(NC(=O)c3ccc(C#N)cc3)c2-c2nc3ccccc3s2)C1 [Compound 37, N-[3-(2-benzothiazolyl)-4,5,6,7-tetrahydro-6-acetylthieno[2,3-c]pyridin-2-yl]-4-cyanobenzamide]
21 | 64 |  | COc1ccc(C(=O)Nc2sc3c(c2-c2nc4ccccc4s2)CCN(Cc2ccccc2)C3)c(OC)c1 [Compound 13, N-[3-(2-benzothiazolyl)-4,5,6,7-tetrahydro-6-phenylmethylthieno[2,3-c]pyridin-2-yl]-(2,4-dimethoxy)benzamide]
22 | 57 |  | O=C(Nc1sc2c(c1-c1nc3ccccc3s1)CCN(Cc1ccccc1)C2)c1cccs1 [Compound 23, N-[3-(2-benzothiazolyl)-4,5,6,7-tetrahydro-6-phenylmethylthieno[2,3-c]pyridin-2-yl]-2-thiophenecarboxamide]
23 | 82 | 400 | CC(=O)c1ccc(C(=O)Nc2sc3c(c2-c2nc4ccccc4s2)CCN(Cc2ccccc2)C3)cc1 [Compound 8, N-[3-(2-benzothiazolyl)-4,5,6,7-tetrahydro-6-phenylmethylthieno[2,3-c]pyridin-2-yl]-4-acetylbenzamide]
24 | 37 |  | CC(C)N1CCc2c(sc(NC(=O)CN3C(=O)CCC3=O)c2-c2nc3ccccc3s2)C1 [Compound 31, N-[3-(2-benzothiazolyl)-4,5,6,7-tetrahydro-6-(methylethyl)thieno[2,3-c]pyridin-2-yl]-(2,5-dioxo-1-pyrrolidine)acetamide]
